In PubChem BioAssay (NCI):
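Protocol summary: plate cells (96-well), add compound at 5 concentrations, incubate 48 h, interpolate endpoints linearly. TGI marks complete inhibition of growth.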

What was measured:
Assay in all cases: NCI-60 cell line screen, 48 h
[1] = tested on: SK-OV-3 ovarian
[2] = tested on: K-562 leukemia
[3] = tested on: OVCAR-8 ovarian
[4] = tested on: MALME-3M melanoma
[5] = tested on: MDA-MB-435
[6] = tested on: BT-549 breast
[7] = tested on: SF-268 CNS
[8] = tested on: PC-3 prostate
[9] = tested on: MDA-MB-231 breast
[10] = tested on: MCF7 breast
[11] = tested on: RXF 393 renal
[12] = tested on: UACC-257 melanoma

Structure (SMILES) | TGI [1] [µM] | TGI [2] [µM] | TGI [3] [µM] | TGI [4] [µM] | TGI [5] [µM] | TGI [6] [µM] | TGI [7] [µM] | TGI [8] [µM] | TGI [9] [µM] | TGI [10] [µM] | TGI [11] [µM] | TGI [12] [µM]
COc1ccc2c(c1)c1c(n2CCN2CCOCC2)-c2ccccc2CC1 | > 100 | 40.2 | > 100 | 66.6 | > 100 | > 100 | > 100 | > 100 | > 100 | > 100 | > 100 | > 100
CC(C)=CCN1CC(C)C(=O)Nc2cc(Cl)ccc21 (configuration not stated) | 84.4 | > 100 | 79.4 | 62.3 | 52.1 | 51.6 | > 100 | 47.5 | 50.2 | 44.6 | > 100 | 36
O=c1[nH]cnc2c(C3OC(CO)C(O)C3O)c[nH]c12 (configuration not stated) | > 100 | > 100 | > 100 | > 100 | > 100 | > 100 | > 100 | > 100 | > 100 | > 100 | > 100 | > 100
COc1ccc(N2C(=O)C3c4[nH]c5ccc([N+](=O)[O-])cc5c4C4CCC(C(C)(C)C)CC4C3C2=O)cc1 (configuration not stated) | > 100 | 7.33 | > 100 | > 100 | > 100 | > 100 | > 100 | > 100 | 36.5 | > 100 | 9.34 | > 100
CCOC(=O)c1cc2c([N+](=O)[O-])c(NC(C)=O)ccc2s1 | > 100 | > 100 | > 100 | > 100 | > 100 | > 100 | > 100 | > 100 | 83.9 | > 100 | > 100 | > 100
C[C@]12OC[C@H](c3ccccc3)N1C(=O)C1[C@H]2CC12SCCS2 (some centres not stated) | > 100 | > 100 | > 100 | > 100 | > 100 | > 100 | > 100 | > 100 | > 100 | > 100 | > 100 | > 100
Cc1ccc(S(=O)(=O)N2CCN3C(=O)c4ccccc4C32c2ccc(F)cc2)cc1 (configuration not stated) | > 100 | > 100 | > 100 | > 100 | > 100 | > 100 | > 100 | > 100 | > 100 | > 100 | > 100 | > 100
C=CC(=O)c1ccc2c(c1)OCCOCCOCCOCCOCCO2 | > 100 | > 100 | 41.9 | 33.6 | 43.2 | 37.2 | > 92.8 | 76.5 | 36 | 32.4 | 32.3 | 35.6
CC(=O)OCC1OC(N2C(=O)/C(=C\c3ccc(Cl)cc3)C(N)=Nc3ccccc32)C(OC(C)=O)C(OC(C)=O)C1OC(C)=O (configuration not stated) | > 100 | 33.1 | 26.7 | 68.4 | 30.7 | > 100 | 42 | 59.8 | 49.9 | 33.1 | 27.9 | 66.6
Cc1ccc(-c2cc(N)n(-c3nc4c([nH]3)c(=O)n(C)c(=O)n4C)n2)cc1 | 16.1 | > 100 | 15.3 | 16 | > 100 | 32.9 | 34.5 | > 100 | 27.8 | > 100 | 81.1 | 82.3
Clc1nc(Cl)nc(NC23CC4CC(CC(C4)C2)C3)n1 | > 57.1 | 33.7 | 34.9 | 30.5 | 34.4 | 35.6 | 38.2 | > 49.6 | 36.7 | > 64.3 | 32.1 | 42.3
